Experimental data as given in ChEMBL document CHEMBL1158547, “KDR Kinase Inhibitor Isolated from the Mushroom Boletopsis leucomelas” (J Nat Prod, 2010).

Key:
[1] = biological target: Vascular endothelial growth factor receptor 2 (Homo sapiens, UniProt P35968); assay: Inhibition of KDR after 2 hrs incubation
HUVEC = assay: Antiproliferative activity against HUVEC after 72 hrs by WST8 dye reduction assay; format: functional, cell-based; settings: Homo sapiens

Chain of Vascular endothelial growth factor receptor 2 (P35968 whole entry): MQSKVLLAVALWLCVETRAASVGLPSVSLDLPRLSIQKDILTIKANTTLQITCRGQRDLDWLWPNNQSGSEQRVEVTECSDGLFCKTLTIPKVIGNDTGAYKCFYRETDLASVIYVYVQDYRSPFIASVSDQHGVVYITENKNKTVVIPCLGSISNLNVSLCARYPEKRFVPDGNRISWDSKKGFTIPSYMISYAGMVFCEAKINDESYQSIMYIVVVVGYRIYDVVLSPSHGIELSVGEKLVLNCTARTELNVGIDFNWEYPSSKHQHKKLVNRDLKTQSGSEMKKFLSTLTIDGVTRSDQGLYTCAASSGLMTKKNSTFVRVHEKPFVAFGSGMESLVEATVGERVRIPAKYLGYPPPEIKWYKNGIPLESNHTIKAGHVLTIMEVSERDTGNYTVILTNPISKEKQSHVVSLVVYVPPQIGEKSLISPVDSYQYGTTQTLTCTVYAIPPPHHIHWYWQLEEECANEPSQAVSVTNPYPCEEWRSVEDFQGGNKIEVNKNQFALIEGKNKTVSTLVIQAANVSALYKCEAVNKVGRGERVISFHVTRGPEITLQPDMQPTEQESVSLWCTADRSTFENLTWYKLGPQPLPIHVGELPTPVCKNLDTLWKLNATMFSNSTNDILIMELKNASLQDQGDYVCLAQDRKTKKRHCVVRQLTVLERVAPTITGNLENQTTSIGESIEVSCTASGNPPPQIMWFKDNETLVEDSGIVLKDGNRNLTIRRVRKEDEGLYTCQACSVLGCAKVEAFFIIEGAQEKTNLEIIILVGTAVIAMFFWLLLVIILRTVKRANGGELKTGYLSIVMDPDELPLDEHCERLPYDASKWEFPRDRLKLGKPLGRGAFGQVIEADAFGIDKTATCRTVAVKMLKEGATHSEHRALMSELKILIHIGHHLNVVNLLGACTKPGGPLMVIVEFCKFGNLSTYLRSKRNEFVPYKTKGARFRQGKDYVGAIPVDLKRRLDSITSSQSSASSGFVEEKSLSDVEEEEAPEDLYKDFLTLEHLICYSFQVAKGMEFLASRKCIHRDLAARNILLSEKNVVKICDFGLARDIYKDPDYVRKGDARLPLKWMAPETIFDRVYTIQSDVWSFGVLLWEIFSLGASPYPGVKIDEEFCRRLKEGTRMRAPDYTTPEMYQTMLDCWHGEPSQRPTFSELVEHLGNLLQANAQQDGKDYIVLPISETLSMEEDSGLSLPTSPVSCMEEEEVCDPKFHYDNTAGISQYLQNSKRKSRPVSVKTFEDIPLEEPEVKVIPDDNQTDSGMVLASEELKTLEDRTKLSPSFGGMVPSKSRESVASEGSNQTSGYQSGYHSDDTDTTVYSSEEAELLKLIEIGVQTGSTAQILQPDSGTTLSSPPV

IC50 [1]: 70.7 µM
Compound: CC(=O)Oc1c(-c2ccc(O)c(O)c2)c(O)c(O)c2c1oc1cc(O)c(O)cc12 [BOLETOPSIN C]
IC50 (HUVEC): 9.04 µM
